Measurements published in US9861625B2, “Methods and compositions for treating cancer through inhibition of PI3K” (Duke University, priority 2014, dated 2018).

Tests used:
Assay in all cases: MTT cell viability assay
Format in all cases: cell-based
[1] = test system: SKMM1; settings: SKMM1, Multiple Myeloma, RPMI 10% FBS
Excerpt: (§1) A total of 60 cell lines representative of different cancer types were obtained from the ATCC and grown and maintained in accordance with the provided guidelines. The cell lines represented the following distinct histologies: mantle cell lymphoma (5 lines: JVM13, Rec1, Mino, JVM2, Jeko); germinal center B-cell derived (“GCB”) DLBCL (19 lines: Farage, BJAB, Ly1, Ly2, Ly7, Ly8, Ly19, HBL2, HT, Karpas422, Pfeiffer, RCK8, RL, Sci-1, Ski, SUDHL4, SUDHL7, Toledo, WSU-NHL); primary mediastinal B-cell lymphoma (“PMBL”) (3 lines: K1106, MEDB1, U2940); Burkitt lymphoma (11 lines: Daudi, CA46, EB1, EB2, EB3, Jijoye, Raji, Ramos, Namwala, BL2, BL41); Hodgkin lymphoma (3 lines: RMPI6666, L1236, L428); activated B-cell derived (“ABC”) DLBCL (6 lines: Ly3, HBL1, TMD8, Ly10, Riva, U2932); multiple myeloma (6 lines: U266, SKMM1, RPMI8226, KMS12, IM9, H929); acute myelogenous leukemia (“AML”) (2 lines: U937, KG1); acute lymphoblastic leukemia (“ALL”) (2 lines: Reh, SR); and T-cell lymphoma (3 lines: Molt4, RPMI8402, Jurkat). The cell lines were tested within six months after resuscitation.
(§2) The 3-(4,5-dimethylthiazol-2-yl)-2,5-diphenyltetrazolium bromide (MTT) cell viability assay was used to determine cell viability in response to drug treatment. Five replicates per concentration tested were carried out in serial dilutions with a total of ten concentrations with a 50% reduction in drug concentration per dilution for each plate. A total of 15 μl of MTT reagent was added to each drug-treated well and incubated for three hours in 37° C. Detergent was added to each drug-treated well and incubated overnight at room temperature without exposure to light. Absorbance was measured at 570 nm using a plate reader from Tecan Group. The IC50 concentration was determined using the publicly available ED50 plus v1.0 software program.

[2] = test system: RPMI8226; settings: Homo sapiens, RPMI-8226; RPMI8226, Multiple Myeloma, RPMI 10% FBS
Excerpt: as §1, §2

[3] = test system: Toledo; settings: Homo sapiens, GCB DLBCL, RPMI 10% FBS
Excerpt: as §1, §2

[4] = test system: JVM13; settings: JVM13, MantleCellLymphoma, RPMI 10% FBS
Excerpt: as §1, §2

[5] = test system: Riva; settings: ABC DLBCL, RPMI 10% FBS
Excerpt: as §1, §2

[6] = test system: BL2; settings: BL2, Burkitt Lymphoma, RPMI 10% FBS
Excerpt: as §1, §2

[7] = test system: Namwala; settings: Burkitt Lymphoma, RPMI 10% FBS
Excerpt: as §1, §2

[8] = test system: U2940; settings: Homo sapiens, U-2940; U2940, PMBL, RPMI 10% FBS
Excerpt: as §1, §2

[9] = test system: LY2; settings: LY2, GCB DLBCL, OCI
Excerpt: as §1, §2

[10] = test system: Ramos; settings: Homo sapiens, Burkitt Lymphoma, RPMI 10% FBS
Excerpt: as §1, §2

[11] = test system: LY8; settings: LY8, GCB DLBCL, OCI
Excerpt: as §1, §2

[12] = test system: LY10; settings: LY10, ABC DLBCL, OCI
Excerpt: as §1, §2

[13] = test system: JVM2; settings: Homo sapiens, JVM-2; JVM2, MantleCellLymphoma, RPMI 10% FBS
Excerpt: as §1, §2

[14] = test system: Jurkat; settings: Homo sapiens, T-cell, RPMI 10% FBS
Excerpt: as §1, §2

[15] = test system: RMPI6666; settings: RMPI6666, Hodgkin Lymphoma, RPMI 10% FBS
Excerpt: as §1, §2

[16] = test system: RPMI8402; settings: Homo sapiens, RPMI 8402; RPMI8402, T-cell, RPMI 10% FBS
Excerpt: as §1, §2

[17] = test system: HBL2; settings: HBL2, GCB DLBCL, RPMI 10% FBS
Excerpt: as §1, §2

[18] = test system: SUDHL7; settings: SUDHL7, GCB DLBCL, RPMI 15% FBS
Excerpt: as §1, §2

[19] = test system: HT; settings: Homo sapiens, GCB DLBCL, RPMI 10% FBS
Excerpt: as §1, §2

[20] = test system: KMS12; settings: KMS12, Multiple Myeloma, RPMI 10% FBS
Excerpt: as §1, §2

[21] = test system: Ski; settings: GCB DLBCL, RPMI 10% FBS
Excerpt: as §1, §2

[22] = test system: L428; settings: Homo sapiens, L-428; L428, Hodgkin Lymphoma, RPMI 10% FBS
Excerpt: as §1, §2

[23] = test system: U266; settings: Homo sapiens, U-266; U266, Multiple Myeloma, RPMI 15% FBS
Excerpt: as §1, §2

Row | IC50 [1] [nM] | IC50 [2] [nM] | IC50 [10] [nM] | IC50 [14] [nM] | IC50 [18] [nM] | SMILES | IC50 [3] [nM] | IC50 [4] [nM] | IC50 [5] [nM] | IC50 [6] [nM] | IC50 [7] [nM] | IC50 [8] [nM] | IC50 [9] [nM] | IC50 [11] [nM] | IC50 [12] [nM] | IC50 [13] [nM] | IC50 [15] [nM] | IC50 [16] [nM] | IC50 [17] [nM] | IC50 [19] [nM] | IC50 [20] [nM] | also measured
1 | 48.4 | 56.9 | 51 | 33.2 | 22.2 | Cn1c(=O)n(-c2ccc(C(C)(C)C#N)cc2)c2c3cc(-c4cnc5ccccc5c4)ccc3ncc21 [BEZ235] | 20.4 | 869 | 517 | 49.9 | 32.1 | 35.4 | 29.7 | 694 | 9390 | 491 | 52 | 220 | 1560 | 2610 | 23.1 | IC50 [21]: 25 nM; IC50 [22]: 14.6 nM; IC50 [23]: 167 nM
2 | 826 | 674 | 1040 | 1190 | 233 | Nc1cc(C(F)(F)F)c(-c2cc(N3CCOCC3)nc(N3CCOCC3)n2)cn1 [BKM120] | 2010 | 933 | 476 | 722 | 714 | 4450 | 2220 | 1370 | 1520 | 1390 | 3300 | 1220 | 1420 | 435 | 954 | IC50 [21]: 236 nM; IC50 [22]: 1870 nM; IC50 [23]: 5600 nM
